The text below walks through data of US4857650A, “Novel renin inhibitory amino acid derivatives” (Kissei Pharmaceutical Co., Ltd., priority 1985, dated 1989).

The target in assay [1] is T1, renin in human high renin plasma (Homo sapiens, UniProt P00797).
T1 construct: 500 μl of human high renin plasma; from tissue; host or cells: human high renin plasma
T1 sequence (P00797 67-406): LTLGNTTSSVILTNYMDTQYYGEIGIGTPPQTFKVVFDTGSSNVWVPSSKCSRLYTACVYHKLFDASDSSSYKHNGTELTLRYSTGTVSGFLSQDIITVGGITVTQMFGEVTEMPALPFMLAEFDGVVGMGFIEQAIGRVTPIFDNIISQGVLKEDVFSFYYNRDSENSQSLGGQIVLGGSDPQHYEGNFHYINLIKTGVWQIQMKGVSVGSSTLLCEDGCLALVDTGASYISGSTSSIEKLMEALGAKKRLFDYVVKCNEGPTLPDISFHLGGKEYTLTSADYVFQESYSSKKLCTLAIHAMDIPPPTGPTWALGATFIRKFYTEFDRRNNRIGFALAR
Put plainly: Renin inhibitory effect in a human high renin plasma. The class given is biochemical. As to conditions: pH 7.4, 30 minutes at 37° C., read-out: IC50 (molar concentration). Here is the method:
Renin inhibitory effect in a human high renin plasma A mixture of 350 μl of a 0.5M phosphate buffer containing 14 mM EDTA 2Na and a 0.3% neomycin sulfate, which was adjusted to the pH of 7.4, 50 μl of a 20 mM an aqueous solution of […] as an angiotensin converting enzyme inhibitor and 100 μl of dimethyl sulfoxide solution containing an amino acid compound of the present invention was added to 500 μl of human high renin plasma. […] was incubated for 30 minutes at 37° C. in a water bath. A 200 μl sample was withdrawn from the incubated mixture, chilled immediately in an ice bath, and the amount of angiotensin I produced was determined by radioimmunoassay, and remaining of the mixture (200 μ[…] 4° C. in an ice bath. The amount of angiotensin I produced in the incubated mixture at 4° C. in an ice bath was determined by radioimmunoassay. As a control, the same procedure as above was carried out by using 100 μl of dimethyl sulfoxide alone in place of the 100 μl of dimethyl sulfoxide solution containing an amino acid compound of the present invention. The inhibitory effect was calculated by the following equation. [formula] The molar concentration which produced 50% inhibition (IC50) was calculated from the inhibition value obtained, and the results are shown below.

A further assay deals with T2, human renin (Homo sapiens, UniProt P00797).
T2 sequence (P00797 67-406): T1 sequence (P00797 67-406)
Put plainly: Human renin-sheep renin substrate reaction system in vitro. The class given is biochemical. Conditions: pH 7.4, 15 minutes at 37° C., read-out: IC50 (molar concentration). Here is the method:
Human resin-sheep resin substrate reaction system in vitro To a mixture containing 200 μl of a 125 mM pyrophosphate buffer (pH 7.4), 25 μl of a 20 mM aqueous solution of […] as an angiotensin converting enzyme inhibitor, 50 μl of semipurified sheep renin substrate ([…]), 50 μl of dimethyl sulfoxide solution of an amino acid derivative of the present invention (or 50 μl of dimethyl sulfoxide as a control) and 150 μl of deionized water was added 25 μl of purified human renin (20-30 ng angiotensin I/ml/hr). The mixture was incubated for 15 minutes on a water bath at 37° C., and the reaction mixture was allowed to stand for 5 minutes on a water bath at 100° C. to stop the reaction. After cooling, 200 μl of the solution were taken up and the amount of angiotensin I produced by the addition of renin was determined by radioimmunoassay. The inhibitory effect was calculated by the following equation. [formula] The molar concentration which produced 50% inhibition (IC50) was calculated from the inhibition value obtained, and the results are shown below.

Consider `COC(=O)[C@H](C)NC(=O)CC(Cc1cccc2ccccc12)C(=O)N[C@@H](Cc1c[nH]cn1)C(=O)N[C@@H](CC(C)C)C(O)C(=O)OC(C)C` (stereo partly drawn) [Isopropyl(2RS,3S)-3-{N-{2-(1-naphthylmethyl)-3-[N-(1S-methoxycarbonylethyl)carbamoyl]propionyl}-L-histidyl}amino-2-hydroxy-5-methylhexanoate], for which the IC50 amounted to 210 nM in assay [1] and 300 nM at human renin.

`COC(=O)[C@@H]1CC(O)CN1C(=O)CC(Cc1cccc2ccccc12)C(=O)N[C@@H](Cc1c[nH]cn1)C(=O)N[C@@H](CC(C)C)C(O)C(=O)OC(C)C` (stereo partly drawn) [Isopropyl(2RS,3S)-3-{N-[2-(1-naphthylmethyl)-3-(4-hydroxy-2S-methoxycarbonylpyrrolidinocarbonyl)-propionyl]-L-histidyl}amino-2-hydroxy-5-methylhexanoate]: the IC50 in assay [1] stood at 190 nM; at human renin it was 41 nM.

For `COC(=O)[C@H](C)N(C)C(=O)CC(Cc1cccc2ccccc12)C(=O)N[C@@H](Cc1c[nH]cn1)C(=O)N[C@@H](CC(C)C)C(O)C(=O)OC(C)C` (stereo partly drawn) [Isopropyl(2RS,3S)-3-{N-{2-(1-naphthylmethyl)-3-[N-methyl-N-(1S-methoxycarbonylethyl)carbamoyl]propionyl}-L-histidyl}amino-2-hydroxy-5-methylhexanoate], the IC50 in assay [1] came out at 16 nM; on human renin, 33 nM.

As to `CC(C)C[C@H](NC(=O)[C@H](Cc1c[nH]cn1)NC(=O)C(CC(=O)N[C@@H](C)C(N)=O)Cc1cccc2ccccc12)C(O)C(=O)OC(C)C` (stereo partly drawn) [Isopropyl(2RS,3S)-3-{N-{2-(1-naphthylmethyl)-3-[N-(1S-carbamoylethyl)carbamoyl]propionyl}-L-histidyl}amino-2-hydroxy-5-methylhexanoate], the IC50 in assay [1] came out at 240 nM; on human renin, 440 nM.

Take `COC(=O)CC(Cc1cccc2ccccc12)C(=O)N[C@@H](Cc1c[nH]cn1)C(=O)N[C@@H](CC(C)C)[C@@H](O)CC(=O)NCCC(C)C` (stereo partly drawn) [N-[3-(methoxycarbonyl)-2-(1-naphthylmethyl)propionyl]-L-histidyl-statylisoamylamide]: the IC50 in assay [1] was 60 nM; at human renin, 37 nM.

For the molecule `CC(C)C[C@H](NC(=O)[C@H](Cc1c[nH]cn1)NC(=O)C(CC(=O)N(CCO)CCO)Cc1cccc2ccccc12)C(O)C(=O)OC(C)C` (mixture of isomers) [Isopropyl(2RS,3S)-3-{N-{2-(1-naphthylmethyl)-3-[bis(2-hydroxyethyl)carbamoyl]propionyl}-L-histidyl}amino-2-hydroxy-5-methylhexanoate], the results for the IC50 (in assay [1]; on human renin) were 180 nM and 89 nM, respectively.

For `COC(=O)[C@@H]1CCCN1C(=O)CC(Cc1cccc2ccccc12)C(=O)N[C@@H](Cc1c[nH]cn1)C(=O)N[C@@H](CC(C)C)C(O)C(=O)NCCC(C)C` (stereo partly drawn) [(2RS,3S)-3-{N-[2-(1-Naphthylmethyl)-3-(2S-methoxycarbonylpyrrolidinocarbonyl)propionyl]-L-histidyl}amino-2-hydroxy-5-methylhexanoylisoamylamide], the figures for the IC50 (in assay [1]; at human renin) were 290 nM and 84 nM, respectively.

With `COC(=O)CN(C)C(=O)CC(Cc1cccc2ccccc12)C(=O)N[C@@H](Cc1c[nH]cn1)C(=O)N[C@@H](CC(C)C)C(O)C(=O)OC` (mixture of isomers) [Methyl(2RS,3S)-3-{N-[2-(1-naphthylmethyl)-3-(N-methyl-N-methoxycarbonylmethylcarbamoyl)propionyl]-L-histidyl}amino-2-hydroxy-5-methylhexanoate], the IC50 turned out to be 14 nM in assay [1] and 12 nM at human renin.

In the case of `CC(C)C[C@H](NC(=O)[C@H](Cc1c[nH]cn1)NC(=O)C(CC(=O)N(C)CCO)Cc1cccc2ccccc12)C(O)C(=O)OC(C)C` (mixture of isomers) [Isopropyl(2RS,3S)-3-{N-{2-(1-naphthylmethyl)-3-[N-methyl-N-(2-hydroxyethyl)carbamoyl]propionyl}-L-histidyl}amino-2-hydroxy-5-methylhexanoate], the IC50 in assay [1] was 28 nM; at human renin it was 41 nM.

`COC(=O)C[C@@H](C(=O)OC)N(C)C(=O)CC(Cc1cccc2ccccc12)C(=O)N[C@@H](Cc1c[nH]cn1)C(=O)N[C@@H](CC(C)C)C(O)C(=O)OC(C)C` (stereo partly drawn) [Isopropyl(2RS,3S)-3-{N-{2-(1-naphthylmethyl)-3-[N-methyl-N-(1S,2-bismethoxycarbonylethyl)carbamoyl]-propionyl}-L-histidyl}amino-2-hydroxy-5-methylhexanoate]: the values for the IC50 (in assay [1]; at human renin) were 190 nM and 81 nM, respectively.

With `COC(=O)CCN(C)C(=O)CC(Cc1cccc2ccccc12)C(=O)N[C@@H](Cc1c[nH]cn1)C(=O)N[C@@H](CC(C)C)C(O)C(=O)OC(C)C` (mixture of isomers) [Isopropyl(2RS,3S)-3-{N-{2-(1-naphthylmethyl)-3-[N-methyl-N-{2-methoxycarbonylethyl)carbamoyl]propionyl}-L-histidyl}amino-2-hydroxy-5-methylhexanoate], the IC50 (in assay [1]; at human renin) was 17 nM each time.

For the molecule `CNC(=O)CNC(=O)CC(Cc1cccc2ccccc12)C(=O)N[C@@H](Cc1c[nH]cn1)C(=O)N[C@@H](CC(C)C)C(O)C(=O)OC(C)C` (mixture of isomers) [Isopropyl(2RS,3S)-3-{N-[2-(1-naphthylmethyl)-3-(N-methylcarbamoylmethylcarbamoyl)propionyl]-L-histidyl}amino-2-hydroxy-5-methylhexanoate], the IC50 worked out at 290 nM in assay [1] and 620 nM at human renin.

For the molecule `COC(=O)[C@H]1CCCN1C(=O)CC(Cc1cccc2ccccc12)C(=O)N[C@@H](Cc1c[nH]cn1)C(=O)N[C@@H](CC(C)C)C(O)C(=O)OC(C)C` (stereo partly drawn) [Isopyl(2RS,3S)-3-{N-[2-(1-naphthylmethyl)-3-(2R-methoxycarbonylpyrrolidinocarbonyl)propionyl]-L-histidyl}amino-2-hydroxy-5-methylhexanoate], the figures for the IC50 (in assay [1]; at human renin) were 15 nM and 28 nM, respectively.

In the case of `CC(C)C[C@H](NC(=O)[C@H](Cc1c[nH]cn1)NC(=O)C(CC(N)=O)Cc1cccc2ccccc12)C(O)C(=O)OC(C)C` (mixture of isomers) [Isopropyl (2RS,3S)-3-{N-[3-(carbamoyl)-2-(1-naphthylmethyl)propionyl]-L-histidyl}amino-2-hydroxy-5-methylhexanoate], the results for the IC50 (in assay [1]; at human renin) were 490 nM and 520 nM, respectively.

`COC(=O)CN(C)C(=O)CC(Cc1cccc2ccccc12)C(=O)N[C@@H](Cc1c[nH]cn1)C(=O)N[C@@H](CC(C)C)[C@@H](O)CC(=O)NCCC(C)C` (stereo partly drawn) [N-[2-(1-Naphthylmethyl)-3-(N-methyl-N-methoxycarbonylmethylcarbamoyl)propionyl]-L-histidyl-statylisoamylamide]: the IC50 (in assay [1]; at human renin) was 35 nM in each case.

As to `CC(C)C[C@H](NC(=O)[C@H](Cc1c[nH]cn1)NC(=O)C(CC(=O)OC(C)C)Cc1cccc2ccccc12)C(O)C(=O)OC(C)C` (mixture of isomers) [Isopropyl (2RS,3S)-3-{N-[3-(isopropoxycarbonyl)-2-(1-naphthylmethyl)propionyl]-L-histidyl}amino-2-hydroxy-5-methylhexanoate], the IC50 in assay [1] is 160 nM; at human renin, 64 nM.

With `COC(=O)CNC(=O)CC(Cc1cccc2ccccc12)C(=O)N[C@@H](Cc1c[nH]cn1)C(=O)N[C@@H](CC(C)C)C(O)C(=O)OC(C)C` (mixture of isomers) [Isopropyl(2RS,3S)-3-{N-[2-(1-naphthylmethyl)-3-(N-methoxycarbonylmethylcarbamoyl)propionyl]-L-histidyl}amino-2-hydroxy-5-methylhexanoate], the values for the IC50 (in assay [1]; at human renin) were 76 nM and 240 nM, respectively.

For the molecule `COC(=O)C(O)[C@H](CC(C)C)NC(=O)[C@H](Cc1c[nH]cn1)NC(=O)C(CC(=O)N1CCC[C@H]1C(=O)OC)Cc1cccc2ccccc12` (stereo partly drawn) [Methyl(2RS,3S)-3-{N-[2-(1-naphthylmethyl)-3-(2S-methoxycarbonylpyrrolidinocarbonyl)propionyl]-L-histidyl}amino-2-hydroxy-5-methylhexanoate], the IC50 in assay [1] was determined as 53 nM; at human renin, 40 nM.
